Literature values as cited in patent publication US20120016021A1, “METHODS OF TREATING FRAGILE X SYNDROME, DOWN'S SYNDROME, AUTISM AND RELATED DISORDERS” (XENOPORT, INC., priority 2010, published 2012).

Experiments:
[1] = administered orally
[2] = animal models
[3] = test system: Fmr1^/− animals
[4] = test system: Fmr1 KO mice; conditions: low doses (1 mg/kg), audiogenically induced seizures
[5] = test system: autistic children

elimination half-life [1] [h]	absorption following administration into the colon [2]	SMILES	locomotor activity ([3]; baclofen at 3 mg/kg, Fmr1^/− animals)	dose needed for comparable locomotor suppression in animals reared by Fmr1^+/+ mothers versus Fmr1^/− animals ([3]; relative to 3 mg/kg) [fold]	seizure incidence [4]	social isolation and communication [5]	irritability subscale of the Aberrant Behavior Checklist and Clinical Global Impressions-Improvement ([5]; placebo-controlled)
3 to 4	poorly absorbed	NCC(CC(=O)O)c1ccc(Cl)cc1 (racemic) [baclofen, 4-amino-3-(4-chlorophenyl)butanoic acid]	inhibits locomotor activity	2	significantly inhibits seizure incidence		
		Cc1nc2n(c(=O)c1CCN1CCC(c3noc4cc(F)ccc34)CC1)CCCC2 [risperidone]				not improved	significant improvement
